Experimental findings from paper PMC12346692, “SUL-150 Limits Vascular Remodeling and Ventricular Failure in Pulmonary Arterial Hypertension” (International Journal of Molecular Sciences, 2025) are described below.

Usually EC50 stands for the concentration that produces a half-maximal response.

Assay [1] deals with pulmonary artery rings. The assay is described as follows: Ex vivo myography of pulmonary artery rings, acute SUL-150 pre-incubation, phenylephrine-induced vasoconstriction. Set-up: species or system rat. As to conditions: vehicle pre-incubation; for EC50: Rattus norvegicus. On the procedure: The fourth-degree branching intralobar pulmonary arteries were carefully dissected under a Leica S4E stereomicroscope as described before. Arterial ring segments (2 mm length) were mounted in a Mulvany-type wire myograph system (model #610M, Danish Myo Technology, Aarhus, Denmark) using Ø40 µm steel wire. Rings were preserved in myography chambers filled with aerated Krebs buffer (pH 7.4) at 37 °C. After 20 min equilibration, rings were stretched to 1.8 kPa using the DMT Normalization Procedure and allowed to equilibrate for an additional 20 min. Analogue–digital signal conversion was performed using PowerLab 8/30, and a myogram was recorded in PowerLab Chart v 5.3 (AD Instruments, Oxford, UK). To assess the acute effects of SUL-150 on vasoconstriction, arterial rings were pre-constricted with 60 mM KCl and, following washout and stabilization, incubated with vehicle (0.1% DMSO) or SUL-150 (10^−4 M) for 20 min. Next, constriction responses to phenylephrine (phenylephrine, Sigma-Aldrich, St. Louis, MO, USA) were recorded in the dose range of 3 × 10^−9 to 3 × 10^−5 M. To assess the chronic effects of SUL-150 treatment, a similar protocol was followed, leaving out the preincubation with vehicle or SUL-150. Isometric responses were calculated as % of maximal KCl-induced constriction, and dose–response curves were recorded to determine the efficacy (Emax) and potency (EC50) of phenylephrine to induce vasoconstriction.

In assay [2] the test system is pulmonary artery rings. Kind of assay: Ex vivo myography of pulmonary artery rings after chronic SUL-150 administration, phenylephrine-induced vasoconstriction. The settings on record: for EC50: Rattus norvegicus, 840 h. Type of assay: in vivo, rat.
Assay [3] has as its system neonatal rat cardiomyocytes. Kind of assay: In vitro hypertrophy reporter assay in phenylephrine-treated cardiomyocytes. Type of assay: cell-based. The settings on record: vehicle pre-incubation, phenylephrine 24 h. On the procedure: Cultures of neonatal rat cardiomyocytes were prepared from 1–3-day-old Wistar rats and adenovirally transformed with hypertrophy reporter construct as described elsewhere. Cardiomyocytes were pre-incubated with SUL-150 (3 × 10^−5 M) or vehicle for 30 min and subsequently stimulated with phenylephrine in the dose range of 10^−8 to 10^−4 M for 24 h. Cells were lysed in passive lysis buffer (Promega, Madison, WI, USA), and […] intensity of the lysate was recorded in an EnVision 2102 plate reader (Perkin Elmer, Waltham, MA, USA).
Background: Reporter assays use an easily measured gene product as a stand-in for the process of interest.

Setting [4] is: pulmonary artery rings of PAH rats.
The mark [5] stands for this setting: pulmonary artery rings of sham rats.
Where [6] appears, read: rings of sham control rats (day 35, chronic study).
The mark [7] stands for this setting: rings of vehicle-treated PAH rats (day 35, chronic study).

With `CNC[C@H](O)c1cccc(O)c1` [phenylephrine], the EC50 with pulmonary artery rings [1] (setting [4]) was 1080 nM; in the assay with pulmonary artery rings [1] (setting [5]) it was 174 nM; in the assay with pulmonary artery rings [2] (setting [6]), 89.8 nM; in the assay with pulmonary artery rings [2] (setting [7]) it was 1240 nM; in assay [3] (Rattus norvegicus, Cardiomyocyte) it was 1520 nM. The “Emax of phenylephrine-induced vasoconstriction” value with pulmonary artery rings [1] (setting [4]) was 43.4 % of max; with pulmonary artery rings [1] (setting [5]), 34.7 % of max; in the assay with pulmonary artery rings [2] (setting [6]), 33.0 ± 2.3 % of max; with pulmonary artery rings [2] (setting [7]) it was 71.9 ± 9.2 % of max. Further, the “Emax of phenylephrine in hypertrophy reporter” value in assay [3] came out at 3.93 RFU.
